Test results as given in publication PMC7734798 (ACS Medicinal Chemistry Letters, 2020).
Values joined by “and” are separate entries in the source; they are usually repeats but may differ in a detail not shown here. Equal values may be shown once. “Also recorded” adds a separate entry of the source. Read-outs that look alike come from different tables or passages of the source.

Columns and labels:
[1] = PAMPA-BBB permeation assay; conditions: for Papp at 100 µM: PAMPA, pH 7.4; for BBB penetration estimation, CNS (+/−): PAMPA-BBB prediction
Olig2 = assay: Oli-Neu proliferation marker Olig2 expression (Western blot); assay type: cell-based, mouse; conditions: Oli-Neu cells, 5 μM, 48 h
Description: (§1) OPC proliferation and migration to the CNS injury site as well as their differentiation are critical steps toward remyelination in MS. HDAC activity plays a crucial role in OPC proliferation/differentiation; therefore, HDAC modulation is widely considered a promising therapeutic target for MS.[30] […] Therefore, we tested the effect of our compounds on OPC proliferation and differentiation, through cell counting, measure of filaments, and analysis of proliferation/differentiation markers (Figure 7).
(§2) Oli-Neu cells were grown in SATO medium (DMEM medium, 2 mM glutamine, 10 μg/ml insulin, 5.5 μg/ml transferrin, 38.72 nM sodium selenite, 100 µM putrescine, 520 nM L-thyroxine (T4), 500 nM triiodo-L-thyronine (T3), 200 nM progesterone, 25 μg/ml of gentamycin) supplemented with 1% heat-inactivated horse serum (HS) in a humidified, 5% CO2 incubator at 37°C. Cell culture medium and all chemicals were from Sigma-Aldrich, except for insulin-transferrin-sodium selenite 100X supplement (Life Technologies Corporation). Cells were plated on 96 well plates, previously coated with 10 μg/mL poly-L-lysine (Sigma-Aldrich; 10 μg/ml) at the density of 2.5 x 10 4/0.2 mL medium/well and treated with increasing concentrations of the compounds (0.5, 1, 5 and 10 μM).
After 24 hours, the viability was evaluated through the MTT assay.
(§3) Oli-Neu cells proliferation and differentiation assay
48 hours, for cell counting and measure of filaments, 5 random images for each condition were acquired with an Eclipse TS100 (Nikon) microscope using a 10X objective. Cells number and filament length were measured with Fiji ImageJ2 software. After 48 hours for proliferation and 72 hours of treatment for differentiation analysis, cells were lysed in ice-cold lysis buffer (50 mM Tris-HCl pH 7.4, 1% SDS, 0.05% protease inhibitor cocktail; all from Sigma-Aldrich) and protein content was determined by using the Lowry method. […]

[2] = test system: primary rat cerebellar granule neurons (CGNs); conditions: for cell survival/death in CGNs, % mean ± SE of controls (MTT): 24 h treatment; for neurotoxicity profile in CGNs (in words): 5-50 μM, 24 h
[3] = test system: human liver carcinoma immortalized cell line (HepG2); conditions: for cell survival/death in HepG2 cells, % mean ± SE of controls (MTT): 24 h treatment; for hepatotoxicity in HepG2 (in words): even at the higher tested concentrations
Oli-Neu cells = assay: Oli-Neu cell proliferation and differentiation assay: cell counting and measure of filaments; assay type: cell-based, mouse; conditions: 5 μM, 48 h
Description: as §1
as §2, with “μM). […]” for “μM).”
as §3
48 hours, for cell counting and measure of filaments, 5 random images for each condition were acquired with an Eclipse TS100 (Nikon) microscope using a 10X objective. Cells number and filament length were measured with Fiji ImageJ2 software. […]

Row | Compound | Papp at 100 µM [1] | BBB penetration estimation, CNS (+/−) [1] | expression of Olig2, marker of OPCs proliferation (Olig2) | cell survival/death in CGNs, % mean ± SE of controls (MTT) ([2]; 5 μM) | cell survival/death in CGNs, % mean ± SE of controls (MTT) ([2]; 10 μM) | cell survival/death in CGNs, % mean ± SE of controls (MTT) ([2]; 25 μM) | cell survival/death in CGNs, % mean ± SE of controls (MTT) ([2]; 50 μM) | neurotoxicity profile in CGNs (in words) [2] | cell survival/death in HepG2 cells, % mean ± SE of controls (MTT) ([3]; 5 μM) | cell survival/death in HepG2 cells, % mean ± SE of controls (MTT) ([3]; 10 μM) | cell survival/death in HepG2 cells, % mean ± SE of controls (MTT) ([3]; 25 μM) | cell survival/death in HepG2 cells, % mean ± SE of controls (MTT) ([3]; 50 μM) | hepatotoxicity in HepG2 (in words) [3] | Oli-Neu cell number (Oli-Neu cells) | Oli-Neu filament length (Oli-Neu cells)
1 | CC/C=C\C/C=C\C/C=C\CCCCCCCC(=O)NCCNC(=O)C(CCC)CCC [compound 1] | 280 ± 53 nm/s | high BBB permeability; also recorded: CNS + | marked decrease | 98 ± 18% | 107 ± 3% | 89 ± 14% | 99 ± 15% | low neurotoxicity profile | 87 ± 13% | 93 ± 5% | 81 ± 10% and > 80% | 64 ± 8% | low hepatotoxicity | decrease cell number | parallel increase in filament length
2 | CC/C=C\C/C=C\C/C=C\CCCCCCCC(=O)NCCOC(=O)C(CCC)CCC [compound 2] | 146 ± 16.1 nm/s | BBB-permeable; also recorded: CNS + | marked decrease | 97 ± 16% | 110 ± 3% | 96 ± 15% | 85 ± 14% | low neurotoxicity profile | 102 ± 10% | 104 ± 4% | 84 ± 6% and > 80% | 80 ± 9% | low hepatotoxicity | decrease cell number | parallel increase in filament length
